# Assays:
# [1] = biological target: T1, PfEXP1 (expressed in Pichia pastoris) (Plasmodium falciparum, UniProt Q8IIF0); test: glutathione S-transferase assay, absorbance at […] nm; assay type: biochemical
# T1 sequence (Q8IIF0 23-162): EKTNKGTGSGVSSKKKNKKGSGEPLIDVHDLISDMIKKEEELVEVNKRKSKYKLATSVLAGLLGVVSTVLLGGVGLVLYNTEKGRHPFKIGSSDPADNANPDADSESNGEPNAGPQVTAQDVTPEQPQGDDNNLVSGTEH
# PfEXP1 = biological target: T2, PfEXP1 (Plasmodium falciparum, UniProt Q8IIF0); test: as above; assay type: biochemical
# T2 sequence (Q8IIF0 23-162): T1 sequence (Q8IIF0 23-162)
Compound,IC50 [1] [nM],IC50 (PfEXP1) [nM]
C=C[C@H]1C[N@@]2CC[C@H]1C[C@H]2[C@H](O)c1ccnc2ccc(OC)cc12 [quinine],179 ± 52.1,
CCN(CC)CCCC(C)Nc1ccnc2cc(Cl)ccc12 (stereo not drawn) [chloroquine],11.1 ± 4.12,19.3 ± 2.67
